The source of these data is publication PMC6480704, “Antiproliferative Aspidosperma-Type Monoterpenoid Indole Alkaloids from Bousigonia mekongensis Inhibit Tubulin Polymerization” (Molecules, 2019).

The IC50 is the concentration needed to halve the response being measured. The term EC50 denotes the concentration at which the effect is half-maximal. What is called inhibition is the share of the control response that was lost under treatment.

In one assay the test system is A549 (lung carcinoma). The assay is described as follows: Antiproliferative SRB assay, A549. The format is cell-based. As to conditions: Homo sapiens, A549, SRB assay, 72 h, read-out: IC50 A549. Here is the method:
(§1) We tested the fourteen known aspidosperma-type alkaloids (1–14) against chemosensitive KB (originally isolated from epidermoid carcinoma of the nasopharynx) and P-gp over-expressing multidrug-resistant (MDR) KB subline KB-VIN, as well as three additional human cancer cell lines, A549 (lung carcinoma), MDA-MB-231 (triple negative breast cancer), and MCF-7 (estrogen receptor-positive breast cancer), using a sulforhodamine B (SRB) assay (Table 1).
(§2) Antiproliferative activity was determined by the sulforhodamine B (SRB) colorimetric assay as previously described. In brief, human tumor cell lines were cultured in RPMI-1640 medium containing 2 mM l-glutamine and 25 mM HEPES (Gibco), supplemented with 10% fetal bovine serum (Speciality Media), 100 µg/mL streptomycin, 100 IU/mL penicillin, and 0.25 µg/mL amphotericin B (Corning). MDR stock cells (KB-VIN) were maintained in the presence of 100 nM vincristine (VIN) (Sigma-Aldrich, Saint Louis, MI, USA).
(§3) Freshly trypsinized cell suspensions were seeded in 96-well microtiter plates at densities of 4000–11,000 cells per well (based on the cell lines) with compounds. After 72 h in culture with test compounds, cells were fixed in 10% trichloroacetic acid followed by staining with 0.04% sulforhodamine B (Sigma-Aldrich). The bound SRB was solubilized in 10 mM Tris-base and the absorbance at 515 nm was measured using a Microplate Reader (ELx800, Bio-Tek Instruments, Winooski, VT, USA) operated by Gen5 software (BioTek) after solubilizing the protein-bound dye with 10 mM Tris base. The mean IC50 is the concentration of agent that reduced cell growth by 50% compared with vehicle (DMSO) control under the experimental conditions and is the average from at least three independent experiments with duplicate samples.
(§4) The following human tumor cell lines were used in the assay: A549 (lung carcinoma), MDA-MB-231 (triplen-egative breast cancer), KB (originally isolated from epidermoid carcinoma of the nasopharynx), KB-VIN (VIN-resistant KB subline showing MDR phenotype by overexpressing P-gp), MCF-7 (estrogen receptor (ER)-positive, HER2-negative breast cancer). […] All cell lines were obtained from the Lineberger Comprehensive Cancer Center (UNC-CH) or from ATCC (Manassas, VA), except KB-VIN, which was a generous gift from Professor Y.-C. Cheng (Yale University). Paclitaxel was purchased from Sigma-Aldrich.

Assay [1] relates to MDA-MB-231 (triple negative breast cancer). The assay is described as follows: Antiproliferative SRB assay, MDA-MB-231. As to conditions: Homo sapiens, MDA-MB-231, SRB assay, 72 h, read-out: IC50 MDA-MB-231. The format is cell-based. Here is the method: as §1, §2, §3, §4
The test system of assay [2] is KB (originally isolated from epidermoid carcinoma of the nasopharynx). The assay is described as follows: Antiproliferative SRB assay, KB. As to conditions: Homo sapiens, SRB assay, 72 h, read-out: IC50 KB. In kind it is cell-based. The method, then: as §1, §2, §3, §4
For orientation: Sulforhodamine B stains cellular protein and so reports cell mass.

In assay [3] the test system is KB-VIN (VIN-resistant KB subline showing MDR phenotype by overexpressing P-gp). The assay is described as follows: Antiproliferative SRB assay, KB-VIN. As to conditions: Homo sapiens, KBVIN, 72 h, read-out: IC50 KB-VIN. Here is the method: as §1, §2, §3, §4
In assay [4] the test system is MCF-7 (estrogen receptor-positive breast cancer). The assay is described as follows: Antiproliferative SRB assay, MCF-7. The format is cell-based. The following applies: Homo sapiens, MCF7, SRB assay, 72 h, read-out: IC50 MCF-7. Here is the method:
as §1, §2, §3, §4

The target in the next assay is T1, bovine brain tubulin (Bos taurus, UniProt P81947+Q6B856).
T1 construct: electrophoretically homogeneous bovine brain tubulin; from tissue; host or cells: bovine brain
The assay is described as follows: Inhibition of purified tubulin assembly (turbidity). The format is biochemical. The following applies: 10 μM tubulin, 0.4 mM GTP, 20 min at 30 °C; NA = not active (IC50 > 40 µM); read-out: Tubulin Assay ITA: inhibition of purified tubulin assembly, EC50. Here is the method: (§5) Inhibitory effects of compounds on tubulin assembly were evaluated using electrophoretically homogeneous bovine brain tubulin as described previously using 1.0 mg/mL (10 μM) tubulin. The turbidity development as tubulin assembly was initiated by adding 0.4 mM GTP and followed for 20 min at 30 °C following a rapid temperature jump. Compound concentrations as EC50 values that inhibited the increase in turbidity by 50% relative to a control sample were determined. In colchicine inhibition assays, tubulin (1.0 μM) was incubated with 5.0 μM [^3H] colchicine and 5.0 μM test compound at 37 °C for 10 min, when about 40–60% of maximum colchicine binding occurs in control samples.

The target of assay [5] is T2, tubulin (colchicine site) (Bos taurus, UniProt P81947+Q6B856).
T2 construct: electrophoretically homogeneous bovine brain tubulin; from tissue; host or cells: bovine brain
The assay is described as follows: Inhibition of [3H]colchicine binding to tubulin. Set-up: species or system bovine. As to conditions: 5 μM [3H]colchicine, 1 μM tubulin, 5 μM test compound, 37 °C, 10 min, NA = not active; for inhibition at 5 µM: read-out: Tubulin Assay ICB: percent inhibition of [3H]colchicine binding. Here is the method: The data for 6 and 7 indicate that both alkaloids bind to tubulin and inhibit its assembly, and these effects are closely related to their antiproliferative activities against tumor cells. Thus, we further investigated whether the inhibition of tubulin polymerization was the major action of these alkaloids.
as §5

The test system of assay [6] is KB-VIN cells. The assay is described as follows: Cell cycle analysis by flow cytometry (PI staining). The format is cell-based, human. The following applies: 24 h, 1 × IC50 or 3 × IC50. Here is the method: KB-VIN cells were treated with compounds 3, 4, 6, 7, and 13 at their IC50 (1 × IC50) or three-fold IC50 (3 × IC50) concentration, and the cell cycle progression was analyzed by flow cytometer (Figure 2A).
(§6) Figure 2 Mitotic defects in KB-VIN cells treated by compounds. […] Cell cycle distributions (sub-G1, G1, S, G2/M) were analyzed using flow cytometry after staining cells with propidium iodide (PI). […] Fixed cells were stained with antibodies to α-tubulin (green) and phospho-histone H3 (pH3, red), and DAPI was used for DNA (blue). Stained cells were observed by confocal fluorescence microscope. The represented image is a projection of 15~20 optical sections acquired at 0.5~1 µm intervals. […] Bar, 0.025 mm. Additional images are available in Supplementary Figure S1.
KB-VIN cells were seeded in 12-well plates at a density of 1 × 10^5 per well and incubated overnight. […] The DNA contents of stained cells were analyzed by flow cytometer (LSRFortessa, BD Biosciences) controlled by FACSDiva software (BD Biosciences). Paclitaxel (PXL) was used at 3 or 6 µM. […] Experiments were repeated a minimum of two times.

Assay [7] relates to KB-VIN cells. The assay is described as follows: Immunofluorescence staining of α-tubulin, pH3 and DNA. In kind it is cell-based, human. The following applies: 24 h, 3 × IC50. Here is the method: as §6
To determine whether the cell cycle arrest was due to an antimicrotubule effect, cells treated with compounds were analyzed by immunocytochemistry using antibodies to α-tubulin for microtubules and mitotic spindles, Ser10-phosphorylated histone H3 (pH3) for the condensed chromatins and 4′,6-diamidino-2-phenylindole (DAPI) for DNA. […] Thus, we concluded that these alkaloids are tubulin polymerization inhibitors.
Immunocytochemical analysis was performed as previously described. […] After treatment of cells with the agent for 24 h, cells were fixed with 4% paraformaldehyde in PBS and permeabilized with 0.5% Triton X-100 in PBS. Fixed cells were labeled with mouse monoclonal antibody to α-tubulin (B5-1-2, Sigma) and rabbit IgG to Ser10-phosphorylated histone H3 (p-H3) (#06570, EMD Millipore), followed by FITC-conjugated antibody to mouse IgG (Sigma) and Alexa Fluor 549-conjugated antibody to rabbit IgG (Life Technologies). Nuclei were labeled with DAPI (Sigma). Fluorescently-labeled cells were observed using a confocal microscope (Zeiss, LSM700) with ZEN (black edition) software (Zeiss). The 15~20 optical sections acquired at 0.5~1 µm intervals were stacked and reconstructed using ZEN (black edition) software. Experiments were repeated at least twice for each compound. Final images were prepared using Adobe Photoshop CS3.

Assay [8] has as its system A549, MDA-MB-231, KB, KB-VIN, and MCF-7. The assay is described as follows: Antiproliferative SRB assay, values stated across several cell lines. The format is cell-based, human. The following applies: for antiproliferative activity (in words): five human tumor cell lines including MDR subline KB-VIN. The method, then: as §1, §2, §3, §4
Where [9] appears, read: Homo sapiens, A549, KB, KB-VIN, range stated for the group of compounds, read-out: IC50 values ranging over A549, KB and KB-VIN cells.

“Also recorded” adds a separate entry of the source. Like-named read-outs stand apart in the source and are kept apart here.

T2 sequence (P81947 whole entry): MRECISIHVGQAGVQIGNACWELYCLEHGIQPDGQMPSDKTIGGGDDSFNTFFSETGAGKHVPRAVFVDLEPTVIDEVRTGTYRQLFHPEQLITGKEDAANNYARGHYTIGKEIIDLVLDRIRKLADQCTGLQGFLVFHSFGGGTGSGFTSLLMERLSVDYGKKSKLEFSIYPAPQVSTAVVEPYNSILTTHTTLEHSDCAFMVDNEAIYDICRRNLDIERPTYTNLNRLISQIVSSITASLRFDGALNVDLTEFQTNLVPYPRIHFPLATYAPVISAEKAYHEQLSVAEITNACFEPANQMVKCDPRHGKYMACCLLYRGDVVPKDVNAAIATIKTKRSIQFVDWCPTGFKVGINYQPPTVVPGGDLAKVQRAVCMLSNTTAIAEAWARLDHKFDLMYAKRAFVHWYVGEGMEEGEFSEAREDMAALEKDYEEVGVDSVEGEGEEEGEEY
T2 sequence (Q6B856 whole entry): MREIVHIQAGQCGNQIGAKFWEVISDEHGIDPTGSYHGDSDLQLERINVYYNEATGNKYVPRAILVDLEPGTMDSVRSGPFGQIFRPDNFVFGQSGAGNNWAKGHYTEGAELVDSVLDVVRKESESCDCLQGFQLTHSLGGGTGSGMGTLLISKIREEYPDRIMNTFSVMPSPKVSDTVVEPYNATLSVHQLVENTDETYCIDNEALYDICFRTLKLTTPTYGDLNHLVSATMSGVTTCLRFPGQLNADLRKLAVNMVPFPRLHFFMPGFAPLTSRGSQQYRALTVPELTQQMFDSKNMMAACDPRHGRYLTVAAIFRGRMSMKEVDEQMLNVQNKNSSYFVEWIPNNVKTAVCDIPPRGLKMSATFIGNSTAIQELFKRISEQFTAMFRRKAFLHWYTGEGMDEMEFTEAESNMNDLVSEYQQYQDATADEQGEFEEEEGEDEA
T1 sequence (P81947 whole entry): as the sequence (P81947 whole entry) above
T1 sequence (Q6B856 whole entry): as the sequence (Q6B856 whole entry) above

On to `CC[C@@]12CC(C(=O)OC)=C3Nc4cc(O)ccc4[C@@]34CCN(C[C@@H]3O[C@@H]31)[C@@H]24` [Compound 7, 11-hydroxylochnericine], for which the IC50 with A549 (lung carcinoma) turned out to be 5600 ± 100 nM; in assay [1] it was 9800 ± 900 nM; in assay [2], 5400 ± 300 nM; in [3], 6100 ± 400 nM; in assay [4], 10800 ± 800 nM. For the same compound, at bovine brain tubulin, the EC50 came to 4600 ± 100 nM. Besides, in assay [5], the inhibition at 5 µM is 35 ± 1%. Also, the “effect on cell cycle progression” value with KB-VIN cells [6] is reported as “accumulation of cells in the G2/M phase; also recorded: cell cycle arrest at G2/M”. For the same compound, the “microtubule / mitotic spindle morphology” value with KB-VIN cells [7] was “dotted tubulin aggregations without spindles”. Moreover, in assay [8], the “antiproliferative activity (in words)” value is on record as “exhibited antiproliferative activity against all cell lines; also recorded: significant antiproliferative effects against all five tumor cell lines”.
In the case of `CC[C@@]12CC(C(=O)OC)=C3Nc4cc(OC)ccc4[C@@]34CCN(C[C@@H]3O[C@@H]31)[C@@H]24` [Compound 6, 14,15-α-epoxy-11-methoxytabersonine], the half-inhibitory concentration (IC50) in the assay with A549 (lung carcinoma) is 500 nM; in assay [1], 800 nM; in assay [2], 500 nM; in assay [3], 500 nM; in [4], 800 nM; in assay [8] (setting [9]) it was 500 to 900 nM. For the same compound, the concentration giving a half-maximal response (EC50) at bovine brain tubulin turned out to be 700 nM. In assay [5], the inhibition at 5 µM turned out to be 54 ± 0.8%. Moreover, in the assay on KB-VIN cells [6], the “effect on cell cycle progression” value is recorded as “accumulation of cells in the G2/M phase; also recorded: cell cycle arrest at G2/M”. Moreover, the “microtubule / mitotic spindle morphology” value in the assay on KB-VIN cells [7] was “dotted tubulin aggregations without spindles”. In addition, in [8] (6 compared with 5, 9 compared with 8), the “fold rise in potency by a methoxy group at C-11” value was ~ 60 fold. Further, in assay [8], the “antiproliferative activity (in words)” value was “exhibited antiproliferative activity against all cell lines; also recorded: significant antiproliferative effects against all five tumor cell lines”.
Turning to `COc1ccc(/C=C\c2cc(OC)c(OC)c(OC)c2)cc1O` [CA-4, combretastatin A-4, reference compound], the IC50 in the assay with A549 (lung carcinoma) (positive controls, unit nM) is 5.5 ± 0.1 nM; in assay [1] (positive controls, unit nM) it was 8.2 ± 0.5 nM; in [2] (positive controls, unit nM), 3.6 ± 0.1 nM; in assay [3], 3.8 ± 0.1 nM; in [4] (positive controls, unit nM) it was 487 ± 11 nM. Moreover, the “Tubulin Assay ICB: percent inhibition of [3H]colchicine binding” value in assay [5] is “totally inhibited”. Also, the inhibition at 5 µM in assay [5] is 100 ± 0.4%.
Turning to `CC[C@@]12CC(C(=O)OC)=C3Nc4ccccc4[C@@]34CCN(C[C@@H]3O[C@@H]31)[C@@H]24` [Compound 5, lochnericine], the IC50 (in the assay with A549 (lung carcinoma); in [1]; in assay [2]; in assay [3]; in assay [4]) was greater than 40000 nM in each case. Also, the 50% effective concentration (EC50) at bovine brain tubulin was greater than 40000 nM. Also, the inhibition at 5 µM in assay [5] turned out to be 0%. For the same compound, the “antiproliferative activity (in words)” value in assay [8] was “essentially inactive”.
For the compound `COC(=O)C1=C2Nc3cc(O)ccc3C23CCN2CC=CC(C(C)OC(C)=O)(C1)C23` [Compound 13, 19-(R)-acetoxy-11-hydroxytabersonine], the IC50 in the assay on A549 (lung carcinoma) is 700 ± 100 nM; in assay [1] it was 900 nM; in [2], 700 nM; in [3], 700 nM; in assay [4] it was 6700 ± 100 nM; in assay [8] (setting [9]), 500 to 900 nM. Besides, in [8] (five human tumor cell lines, read-out: IC50 range over the cell lines tested), the IC50 is 600 to 6700 nM. In the assay with KB-VIN cells [6], the “effect on cell cycle progression” value was “accumulation of cells in the G2/M phase; also recorded: cell cycle arrest at G2/M”. Besides, the “microtubule / mitotic spindle morphology” value with KB-VIN cells [7] is “dotted tubulin aggregations without spindles”. Further, in assay [8], the “antiproliferative activity (in words)” value is given as “exhibited antiproliferative activity against all cell lines; also recorded: significant antiproliferative effects against all five tumor cell lines”.
With `CC[C@]12C=C[C@@H](CC(C)=O)N3CC[C@]4(C(=C(C(=O)OC)C1)Nc1ccccc14)[C@@H]32` [Compound 3, 3α-acetonyl-tabersonine], the IC50 is 600 nM in the assay on A549 (lung carcinoma); 900 nM in assay [1]; 600 nM in assay [2]; 600 ± 100 nM in [3]; 2200 ± 200 nM in [4]; 500 to 900 nM in [8] (setting [9]). In the assay with KB-VIN cells [6], the “effect on cell cycle progression” value is “accumulation of cells in the G2/M phase; also recorded: cell cycle arrest at G2/M”. In the assay on KB-VIN cells [7], the “microtubule / mitotic spindle morphology” value is recorded as “dotted tubulin aggregations without spindles”. The “antiproliferative activity (in words)” value in assay [8] is reported as “exhibited antiproliferative activity against all cell lines; also recorded: significant antiproliferative effects against all five tumor cell lines”.
